Experiments:
[1] = system: Bacillus licheniformis producing a subtilisin protease; assay: Microtiter plate cultivation, biomass growth by scattered light; format: cell-based; details: μL scale; for maximal biomass values lower compared to MGDA or NTA / development of biomass (scatter plot): 30° C., 48 h; for development of biomass (scatter plot): chelating agent equimolar; for higher scatter (growth and maximal scatter values) compared to citric acid, EGTA, HEEDTA, DTPA and EDTA: FIG. 1
Method: (§1) Glucose was supplied in total in an amount of 14 g/I for a cultivation time of 48 h. […] The different fermentation media were aliquoted to a BioLector Flowerplate/microtiter plate […] labs) 700 μL each and cultivated at 30° C., shaker frequency 1200 rpm for 48 h after inoculating with Bacillus licheniformis producing a subtilisin protease. During the cultivation oxygen partial pressure, pH and scattered light for biomass growth are measured online by optical sensors every 15 min.

[2] = system: Bacillus licheniformis producing a subtilisin protease; assay: Protease formation in microtiter plate cultivation, casein based activity assay; format: cell-based; details: normalized activity units; for enzyme (protease) activity lower than with citrate: comparable for pH 6.7 and pH 7.7, μL scale; for enzyme (protease) activity compared with citrate: trace element solution pH 6.7 and pH 7.7, μL scale
Method: as §1, with “min. For characterization of protease formation enzyme activity was measured by casein based activity assay.” for “min.”

[3] = Trace element solutions with different chelating agents: pH, color and precipitation; format: physicochemical; details: for color development and clarity of trace element solution after final mixing: after addition of Na2MoO4 and final mixing (EDTA: after pH adjustment to pH 4); for measured pH value of trace element solution: after addition of all salts and final mixing, chelating agent equimolar to divalent cations; for precipitation of trace element solution after storage for 24 h and pH adjustment to pH 6: storage 24 h at room temperature or 4° C., pH readjusted to pH 6; for complexation and precipitation compared with citrate (summary): trace element solutions
Source text: A trace element solution was mixed together with one of the following chelating agents: citric acid, […], DTPA, EGTA, or […]. Therefore, at first each chelating agent was weight equimolar to the utilized divalent cations. […] After each compound supplementation the solutions were characterized regarding pH value, color and precipitation. After the addition of the last compound, i.e., Na2MoO4, the solutions were aliquoted. […] Afterwards samples were again characterized by pH value, color and precipitation behavior.

[4] = Fermentation medium with trace element solutions and different chelating agents: precipitation; format: physicochemical; details: for precipitation in fermentation medium, pH adjustment to 6: samples with pH adjustment to 6; for precipitation in fermentation medium, pH adjustment to 6 / precipitation in fermentation medium, pH adjustment to 7.7: 24 h storage; for precipitation in fermentation medium, pH adjustment to 7.7: samples with pH adjustment to 7.7
Method: A fermentation medium was mixed with different chelating agents. Therefore, deionized water, Ca(NO3)2*4 H2O, MgSO4*7H2O, NH4H2PO4, and KH2PO4 were mixed together in this certain order with the respective chelating agent. Each chelating agent was weight equimolar to the utilized divalent cations. Afterwards the pH is measured. All three media were aliquoted six times each. Three aliquots of each medium were adjusted to pH 6.7, the other three samples to pH 7.7. Samples were mixed with the trace element solutions as described in Example 1 and stored at 35° C., room temperature and 4° C. for 24 h. Then color formation and precipitation were characterized.

[5] = system: Bacillus licheniformis producing a subtilisin protease; assay: Fed-batch cultivation process in 20 L scale, protease formation; format: cell-based; details: 20 L scale fed-batch; for STY (productivity), space time yield normalized to % / Titer (productivity), normalized to %: 37° C., pH 7.7, 2 mL/L chelating agent, citric acid = 100%
Method: The fermentation processes were conducted in a baffled stirred tank reactor (STR) with pH, pO2 and temperature probes in a medium with glucose as main carbon source and complex plant protein as N-source. The concentration of O2 and CO2 were monitored by gas analyses. For the cultivations, the fedbatch mode was chosen with a start working volume of 10 L. As bioreactors, 21 L steal vessels were used with 3 rushton turbines with 6 blades.
Medium preparation and sterilization for seed and main culture medium took place in the bioreactor, respectively. The medium contained complex plant protein, NH4H2PO4, KH2PO4, Mn(II)SO4*H2O, Fe(II)SO4*7H2O, MgSO4*7H2O, Ca(NO3)2*4 H2O, trace element solution as described above, antifoam and 2 mL/L MGDA or citric acid. pH was adjusted to pH 6.5. The medium was sterilized in the bioreactor under stirred conditions (600 rpm) for 60 min at 121° C. For inoculation with Bacillus licheniformis producing a subtilisin protease 2% of the starting working volume was used from a seed culture fermenter with the same medium. Seed culture cultivation was conducted at 37° C. and harvested during exponential growth phase after 16 h. The main cultivation was conducted at 37° C., with pO2 dependent stirred cascade from 350-1400 rpm, pH 7.7 and an aeration rate of 1.5 wvvm. The glucose feed was started 8 h after inocu lation.

measured pH value of trace element solution [3]	precipitation on supplementation of CuSO4 ([3]; during preparation of the trace element solution)	complexation and precipitation compared with citrate (summary) [3]	precipitation in fermentation medium, pH adjustment to 6 [4]	precipitation in fermentation medium, pH adjustment to 7.7 [4]	precipitation of trace element solution after storage for 3 h at 4° C. ([3]; 3 h at 4° C.)	Compound	maximal biomass values lower compared to MGDA or NTA [1]	development of biomass (scatter plot) [1]	enzyme (protease) activity lower than with citrate [2]	color development and clarity of trace element solution after final mixing [3]	precipitation of trace element solution after storage for 24 h and pH adjustment to pH 6 [3]	higher scatter (growth and maximal scatter values) compared to citric acid, EGTA, HEEDTA, DTPA and EDTA [1]	enzyme (protease) activity compared with citrate [2]	product titer and space time yields versus citric acid [5]	STY (productivity), space time yield normalized to % [5]	Titer (productivity), normalized to % [5]	precipitation in fermentation medium ([4]; all samples, pH 6.7 and 7.7, 35° C., room temperature and 4° C. for 24 h)
3	strong white precipitates occurred					O=C(O)CN(CCN(CC(=O)O)CC(=O)O)CC(=O)O [EDTA, ethylene diamine tetraacetic acid]		no growth was detected		blue and clear solution	no further precipitation was noticed						
2.6		better results than citrate				O=C(O)CN(CCO)CCN(CC(=O)O)CC(=O)O [HEEDTA, hydroxyethylethylene diamine triacetic acid]		strong delayed growth and lower biomass development	60%	dark blue and was a clear solution	no precipitation was detected						
2.5		better results than citrate	low precipitations	no precipitations occurred		O=C(O)CN(CC(=O)O)CC(=O)O [NTA, nitrilotriacetic acid]		fastest growth and highest values		emerald green and was a crystal clear solution	Neither after storage time of 24 h nor after pH adjustment to pH of 6 any precipitates occurred	20%	on a comparable level as the prior art standard citrate				
2.6		better results than citrate				O=C(O)CN(CCN(CC(=O)O)CC(=O)O)CCN(CC(=O)O)CC(=O)O [DTPA, diethylene triamine pentaacetic acid]		no growth was detected		dark green and was a clear solution	no precipitation was detected						
2.8		better results than citrate	low precipitations	no precipitations occurred		CC(C(=O)O)N(CC(=O)O)CC(=O)O (stereo not shown) [MGDA, methyl glycine diacetic acid]		fastest growth and highest values		green blue and crystal clear solution	Neither after storage for 24 h nor after pH adjustment to pH of 6 any precipitates occurred	20%	on a comparable level as the prior art standard citrate	higher product titer and space time yields	110%	104%	
3.7					precipitates were detected	O=C(O)CC[C@@H](C(=O)O)N(CC(=O)O)CC(=O)O [GLDA, glutamic acid N,N-diacetic acid]				light blue and was a crystal clear solution	precipitates were formed						

Compound	measured pH value of trace element solution [3]	precipitation on supplementation of CuSO4 ([3]; during preparation of the trace element solution)	complexation and precipitation compared with citrate (summary) [3]	precipitation in fermentation medium, pH adjustment to 6 [4]	precipitation in fermentation medium, pH adjustment to 7.7 [4]	precipitation of trace element solution after storage for 3 h at 4° C. ([3]; 3 h at 4° C.)	maximal biomass values lower compared to MGDA or NTA [1]	development of biomass (scatter plot) [1]	enzyme (protease) activity lower than with citrate [2]	color development and clarity of trace element solution after final mixing [3]	precipitation of trace element solution after storage for 24 h and pH adjustment to pH 6 [3]	higher scatter (growth and maximal scatter values) compared to citric acid, EGTA, HEEDTA, DTPA and EDTA [1]	enzyme (protease) activity compared with citrate [2]	product titer and space time yields versus citric acid [5]	STY (productivity), space time yield normalized to % [5]	Titer (productivity), normalized to % [5]	precipitation in fermentation medium ([4]; all samples, pH 6.7 and 7.7, 35° C., room temperature and 4° C. for 24 h)
O=C(O)CN(CCOCCOCCN(CC(=O)O)CC(=O)O)CC(=O)O [EGTA, ethylene glycol tetraacetic acid]	2.7						about 20%	biomass growth started delayed	about 25%	dark blue and was a clear solution	the solution turned darker and brownish						
O=C(O)CC(O)(CC(=O)O)C(=O)O [citric acid]	4.6						about 20%	biomass growth started delayed		emerald green and was a crystal clear solution	precipitates formed a red pellet				100%	100%	strong precipitations in all samples
